Results reported in patent US20140066431A1, “Benzoxazepines as Inhibitors of PI3K/mTOR and Methods of Their Use and Manufacture” (Exelixis, Inc., priority 2010, published 2014).

Biological target: PI3Kα (Homo sapiens, UniProt P42336)
Test: PI3K biochemical assay (ATP consumption, luciferase-luciferin)
Settings: 1.5 nM enzyme, 1 μM ATP, 10 μM PIP2
Protocol: PI3Kα activity is measured as the percent of ATP consumed following the kinase reaction using luciferase-luciferin-coupled chemiluminescence. Reactions were conducted in 384-well white, medium binding microtiter plates (Greiner). Kinase reactions were initiated by combining test compounds, ATP, substrate (PIP2), and kinase in a 20 μL volume in a buffer solution. The standard PI3Kalpha assay buffer is composed 50 mM Tris, pH 7.5, 1 mM EGTA, 10 mM MgCl2, 1 mM DTT and 0.03% CHAPS. The standard assay concentrations for enzyme, ATP, and substrate are 1.5 nM, 1 μM, and 10 μM, respectively. The reaction mixture was incubated at ambient temperature for approximately 2 h. Following the kinase reaction, a 10 μL aliquot of luciferase-luciferin mix (Promega Kinase-Glo) was added and the chemiluminescence signal measured using a Victor2 plate reader (Perkin Elmer). Total ATP consumption was limited to 40-60% and IC50 values of control compounds correlate well with literature references. Substituting PI3Kα with PI3Kβ, PI3Kγ, or PI3Kδ, the inhibitory activity of the compounds for the other isoforms of I3K were measured.

Chain of PI3Kα (P42336 whole entry): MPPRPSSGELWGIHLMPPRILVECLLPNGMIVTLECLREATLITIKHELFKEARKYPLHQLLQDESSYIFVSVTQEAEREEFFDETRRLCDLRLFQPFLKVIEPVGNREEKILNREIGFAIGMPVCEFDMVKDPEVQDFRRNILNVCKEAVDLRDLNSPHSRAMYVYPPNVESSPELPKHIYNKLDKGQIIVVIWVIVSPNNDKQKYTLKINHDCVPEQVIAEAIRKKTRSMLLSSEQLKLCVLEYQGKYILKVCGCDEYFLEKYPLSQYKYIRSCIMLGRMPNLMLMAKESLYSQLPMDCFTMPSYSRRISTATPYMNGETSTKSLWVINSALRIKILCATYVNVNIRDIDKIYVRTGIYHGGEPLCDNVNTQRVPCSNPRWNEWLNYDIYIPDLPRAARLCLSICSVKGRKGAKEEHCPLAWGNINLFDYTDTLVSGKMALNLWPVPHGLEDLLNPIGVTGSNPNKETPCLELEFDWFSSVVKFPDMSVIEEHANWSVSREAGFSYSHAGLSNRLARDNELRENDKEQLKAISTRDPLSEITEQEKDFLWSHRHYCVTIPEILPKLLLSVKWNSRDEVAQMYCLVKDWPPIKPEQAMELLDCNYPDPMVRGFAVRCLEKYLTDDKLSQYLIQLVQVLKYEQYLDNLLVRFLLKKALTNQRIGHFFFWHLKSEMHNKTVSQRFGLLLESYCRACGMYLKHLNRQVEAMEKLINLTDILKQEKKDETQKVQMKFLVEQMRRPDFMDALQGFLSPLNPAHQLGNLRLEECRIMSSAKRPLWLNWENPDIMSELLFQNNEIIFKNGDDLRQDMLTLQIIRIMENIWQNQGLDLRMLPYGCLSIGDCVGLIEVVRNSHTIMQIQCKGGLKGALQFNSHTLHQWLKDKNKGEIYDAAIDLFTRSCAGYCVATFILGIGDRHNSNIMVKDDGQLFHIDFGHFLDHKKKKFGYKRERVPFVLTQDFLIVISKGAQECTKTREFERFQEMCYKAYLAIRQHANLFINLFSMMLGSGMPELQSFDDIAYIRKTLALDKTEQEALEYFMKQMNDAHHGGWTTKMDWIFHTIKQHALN
Chain of PI3Kα (P27986 whole entry partner): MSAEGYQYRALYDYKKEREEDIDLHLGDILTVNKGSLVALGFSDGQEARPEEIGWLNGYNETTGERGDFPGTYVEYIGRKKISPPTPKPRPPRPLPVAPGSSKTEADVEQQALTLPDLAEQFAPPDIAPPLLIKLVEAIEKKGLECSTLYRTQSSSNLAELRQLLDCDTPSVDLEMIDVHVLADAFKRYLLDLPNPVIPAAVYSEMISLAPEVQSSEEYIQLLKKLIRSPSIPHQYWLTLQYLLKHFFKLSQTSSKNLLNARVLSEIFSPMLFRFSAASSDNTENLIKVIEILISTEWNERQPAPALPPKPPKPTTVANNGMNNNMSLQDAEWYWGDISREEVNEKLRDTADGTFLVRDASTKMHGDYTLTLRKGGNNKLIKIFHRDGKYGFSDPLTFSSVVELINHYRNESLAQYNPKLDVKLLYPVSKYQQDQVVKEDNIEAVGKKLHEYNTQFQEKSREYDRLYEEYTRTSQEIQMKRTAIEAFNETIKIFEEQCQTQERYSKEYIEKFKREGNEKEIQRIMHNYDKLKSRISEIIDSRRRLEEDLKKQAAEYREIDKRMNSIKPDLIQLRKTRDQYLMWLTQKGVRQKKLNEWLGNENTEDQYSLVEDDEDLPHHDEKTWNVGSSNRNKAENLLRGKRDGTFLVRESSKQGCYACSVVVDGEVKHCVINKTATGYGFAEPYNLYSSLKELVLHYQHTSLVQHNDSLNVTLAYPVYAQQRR

SMILES	IC50 (PI3Kα biochemical assay)
Cc1nc2ccc(-c3ccc4c(c3)CN(C(=O)N3CCCCC3c3ccc(F)cc3C)CCO4)cc2[nH]1 (stereo not drawn) [compound 117, 4-{[2-(4-fluoro-2-methylphenyl)piperidin-1-yl]carbonyl}-7-(2-methyl-1H-benzimidazol-6-yl)-2,3,4,5-tetrahydro-1,4-benzoxazepine]	not active
Cc1nc2ccc(-c3ccc4c(c3)CN(C(=O)NC3[C@H]5C[C@@H]6C[C@@H](C[C@H]3C6)C5)CCO4)cc2[nH]1 (stereo partly drawn) [compound 149, 7-(2-methyl-1H-benzimidazol-6-yl)-N-[(1r,3r,5R,7R)-tricyclo[3.3.1.1~3,7~]dec-2-yl]-2,3-dihydro-1,4-benzoxazepine-4(5H)-carboxamide]	not active
Cc1nc2ccc(-c3ccc4c(c3)CN(C(=O)N3CCN(Cc5c(F)cccc5Cl)CC3)CCO4)cc2[nH]1 [compound 152, 4-({4-[(2-chloro-6-fluoropheny)methyl]piperazin-1-yl}carbonyl)-7-(2-methyl-1H-benzimidazol-6-yl)-2,3,4,5-tetrahydro-1,4-benzoxazepine]	not active
CCCCN(Cc1ccccc1)C(=O)N1CCOc2ccc(-c3ccc4nc(C)[nH]c4c3)cc2C1 [compound 173, N-butyl-7-(2-methyl-1H-benzimidazol-6-yl)-N-(phenylmethyl)-2,3-dihydro-1,4-benzoxazepine-4(5H)-carboxamide]	not active
Cc1nc2ccc(-c3ccc4c(c3)CN(C(=O)N3CCCCC3Cc3ccccc3)CCO4)cc2[nH]1 (stereo not drawn) [compound 104, 7-(2-methyl-1H-benzimidazol-6-yl)-4-{[2-(phenylmethyl)piperidin-1-yl]carbonyl}-2,3,4,5-tetrahydro-1,4-benzoxazepine]	not active

The remaining lines, values ahead:

IC50 (PI3Kα biochemical assay)	SMILES
not active	CCC1CC2(CCN(C(=O)N3CCOc4ccc(-c5ccc6nc(C)[nH]c6c5)cc4C3)CC2)CC(=O)N1 (stereo not drawn) [compound 155, 4-ethyl-9-{[7-(2-methyl-1H-benzimidazol-6-yl)-2,3-dihydro-1,4-benzoxazepin-4(5H)-yl]carbonyl}-3,9-diazaspiro[5.5]undecan-2-one]
not active	CC1CCN(C(=O)N2CCOc3ccc(-c4cc(N)[nH]n4)cc3C2)CC1 [compound 10, 3-{4-[(4-methylpiperidin-1-yl)carbonyl]-2,3,4,5-tetrahydro-1,4-benzoxazepin-7-yl}-1H-pyrazol-5-amine]
not active	Cc1nc2ccc(-c3ccc4c(c3)CN(C(=O)N3CCC(Cc5ccccc5)CC3)CCO4)cc2[nH]1 [compound 171]
not active	Nc1cnc(-c2ccc3c(c2)CN(C(=O)N2CCC(C(F)(F)F)CC2)CCO3)cn1 [compound 6, 5-(4-{[4-(trifluoromethyl)piperidin-1-yl]carbonyl}-2,3,4,5-tetrahydro-1,4-benzoxazepin-7-yl)pyrazin-2-amine]
not active	CC1CCN(C(=O)N2CCOc3ccc(-c4cnc(N)cn4)cc3C2)CC1 [compound 4, 5-{4-[(4-methylpiperidin-1-yl)carbonyl]-2,3,4,5-tetrahydro-1,4-benzoxazepin-7-yl}pyrazin-2-amine]
not active	CC1CCN(C(=O)N2CCOc3ccc(-c4ccc(N)nn4)cc3C2)CC1 [compound 1, 6-{4-[(4-methylpiperidin-1-yl)carbonyl]-2,3,4,5-tetrahydro-1,4-benzoxazepin-7-yl}pyridazin-3-amine]
not active	Cc1nc2ccc(-c3ccc4c(c3)CN(C(=O)N3CCN(c5ccccc5F)CC3)CCO4)cc2[nH]1 [compound 165, 4-{[4-(2-fluorophenyl)piperazin-1-yl]carbonyl}-7-(2-methyl-1H-benzimidazol-6-yl)-2,3,4,5-tetrahydro-1,4-benzoxazepine]
